In patent US7332495B2 (priority 2002, dated 2008):
Like-named read-outs stand apart in the source and are kept apart here.

Legend:
Format in all cases: in vivo
[1] = tested on: Mice; experiment: Mice 55° C. hot plate; conditions: Mus musculus, po, read-out: Analgesia ED50
Protocol: Two species of animals (mice and rats) and four types of pain testing models (i.p. 0.7% acetic acid, s.c. 5% formalin, hot plate 55° C., focused radiant heat) were used.

[2] = tested on: Mice; conditions: 6 days training
Protocol: 30 mice were divided into 3 groups (10 for each group, ? fifty-fifty): IV-12-1 (1 mg/kg), IV-12-2 (5 mg/kg) and NS. Half of the mice in each group were administrated (s.c.) in the morning and 30 minutes later put into a white box (with medicine), and trained for 30 minutes; Saline is administrated (s.c.) in the afternoon and 30 minutes later put into a black box (without medicine), and trained for 30 minutes. The other half of the group are given saline in the morning and IV-12 in the afternoon, other procedures are the same as above.
The two training periods were at least 6-hour apart and training was continuous for 6 days. On the 7th day, the staying time was tested in both of the boxes.

[3] = tested on: rats; experiment: Spontaneous withdrawal tests (body weight); conditions: for Increase (%) of weight / Weight: IV-12-1 (75 mg/kg)

For `Nc1ccc(CN2CCN(CC(=O)c3ccccc3)CC2)cc1` [IV-12, N^1-(4-aminobenzyl)-N^4-phenacyl piperazine], the ED50 [1] was 20.6 mg/kg, the “Staying time in box with medicine” value ([2]; 1 mg/kg s.c.) was 496.4 ± 73.4 s and the “Staying time in box with medicine” value ([2]; 5 mg/kg s.c.) was 452.8 ± 119.5 s. For the same compound, the “Weight after withdrawal compared with weight one day before withdrawal” value ([3]; IV-12-1 75 mg/kg, ♀, 18 h after withdrawal) was 1.01 ± 0.03, the “Weight after withdrawal compared with weight one day before withdrawal” value ([3]; IV-12-1 75 mg/kg, ♀, 42 h after withdrawal) was 1.02 ± 0.05 and the “Weight after withdrawal compared with weight one day before withdrawal” value ([3]; IV-12-1 75 mg/kg, ♀, 66 h after withdrawal) was 1.03 ± 0.04. For the same compound, the “Weight after withdrawal compared with weight one day before withdrawal” value ([3]; IV-12-1 75 mg/kg, ♀, 90 h after withdrawal) was 1.04 ± 0.06, the “Weight after withdrawal compared with weight one day before withdrawal” value ([3]; IV-12-1 75 mg/kg, ♀, 114 h after withdrawal) was 1.06 ± 0.06 and the “Weight after withdrawal compared with weight one day before withdrawal” value ([3]; IV-12-1 75 mg/kg, ♀, 162 h after withdrawal) was 1.08 ± 0.07. The “Weight after withdrawal compared with weight one day before withdrawal” value ([3]; IV-12-1 75 mg/kg, ♂, 18 h after withdrawal) was 1.01 ± 0.03, the “Weight after withdrawal compared with weight one day before withdrawal” value ([3]; IV-12-1 75 mg/kg, ♂, 42 h after withdrawal) was 1.02 ± 0.03 and the “Weight after withdrawal compared with weight one day before withdrawal” value ([3]; IV-12-1 75 mg/kg, ♂, 66 h after withdrawal) was 1.04 ± 0.04. The “Weight after withdrawal compared with weight one day before withdrawal” value ([3]; IV-12-1 75 mg/kg, ♂, 90 h after withdrawal) was 1.06 ± 0.05, the “Weight after withdrawal compared with weight one day before withdrawal” value ([3]; IV-12-1 75 mg/kg, ♂, 114 h after withdrawal) was 1.08 ± 0.05 and the “Weight after withdrawal compared with weight one day before withdrawal” value ([3]; IV-12-1 75 mg/kg, ♂, 138 h after withdrawal) was 1.11 ± 0.06. The “Weight after withdrawal compared with weight one day before withdrawal” value ([3]; IV-12-1 75 mg/kg, ♂, 162 h after withdrawal) was 1.12 ± 0.09, the “Increase (%) of weight” value ([3]; 12 h after withdrawal) was 2.9% and the “Weight” value ([3]; 12 h after withdrawal) was 248.1 ± 42 g. The “Weight” value ([3]; 18 h after withdrawal) was 250.5 ± 39 g, the “Increase (%) of weight” value ([3]; 24 h after withdrawal) was 2.2% and the “Weight” value ([3]; 24 h after withdrawal) was 246.3 ± 37 g. The “Weight” value ([3]; 36 h after withdrawal) was 253.9 ± 38 g, the “Increase (%) of weight” value ([3]; 42 h after withdrawal) was 4.3% and the “Weight” value ([3]; 42 h after withdrawal) was 251.3 ± 37 g. The “Increase (%) of weight” value ([3]; 48 h after withdrawal) was 3.3%, the “Weight” value ([3]; 48 h after withdrawal) was 249.1 ± 36 g and the “Increase (%) of weight” value ([3]; 60 h after withdrawal) was 7.2%. For the same compound, the “Increase (%) of weight” value ([3]; 66 h after withdrawal) was 4.8%, the “Weight” value ([3]; 66 h after withdrawal) was 252.8 ± 37 g and the “Increase (%) of weight” value ([3]; 72 h after withdrawal) was 4.4%. The “Increase (%) of weight” value ([3]; 84 h after withdrawal) was 9.4%, the “Weight” value ([3]; 84 h after withdrawal) was 263.7 ± 40 g and the “Increase (%) of weight” value ([3]; 90 h after withdrawal) was 6.8%. The “Weight” value ([3]; 90 h after withdrawal) was 257.4 ± 39 g, the “Increase (%) of weight” value ([3]; 96 h after withdrawal) was 5.4% and the “Weight” value ([3]; 96 h after withdrawal) was 254.2 ± 43 g. The “Increase (%) of weight” value ([3]; 108 h after withdrawal) was 11.4%, the “Weight” value ([3]; 108 h after withdrawal) was 268.6 ± 42 g and the “Increase (%) of weight” value ([3]; 114 h after withdrawal) was 8.5%. The “Weight” value ([3]; 114 h after withdrawal) was 261.6 ± 40 g, the “Increase (%) of weight” value ([3]; 120 h after withdrawal) was 8.0% and the “Weight” value ([3]; 120 h after withdrawal) was 260.3 ± 40 g. The “Increase (%) of weight” value ([3]; 132 h after withdrawal) was 14.4%, the “Weight” value ([3]; 132 h after withdrawal) was 275.8 ± 41 g and the “Increase (%) of weight” value ([3]; 138 h after withdrawal) was 11.3%. For the same compound, the “Weight” value ([3]; 138 h after withdrawal) was 268.3 ± 41 g, the “Increase (%) of weight” value ([3]; 144 h after withdrawal) was 9.8% and the “Weight” value ([3]; 144 h after withdrawal) was 264.7 ± 42 g. The “Increase (%) of weight” value ([3]; 156 h after withdrawal) was 15.7%, the “Weight” value ([3]; 156 h after withdrawal) was 279.0 ± 44 g and the “Increase (%) of weight” value ([3]; 162 h after withdrawal) was 12.4%. For the same compound, the “Weight” value ([3]; 162 h after withdrawal) was 271.0 ± 44 g, the “Increase (%) of weight” value ([3]; 168 h after withdrawal) was 11.7% and the “Weight” value ([3]; 168 h after withdrawal) was 269.2 ± 45 g. The “Weight” value ([3]; before withdraw) was 241.1 ± 38 g, the “Weight after withdrawal compared with weight one day before withdrawal” value ([3]; IV-12-2 100 mg/kg, ♀, 42 h after withdrawal) was 1.01 ± 0.05 and the “Weight after withdrawal compared with weight one day before withdrawal” value ([3]; IV-12-2 100 mg/kg, ♀, 66 h after withdrawal) was 1.01 ± 0.06. The “Weight after withdrawal compared with weight one day before withdrawal” value ([3]; IV-12-2 100 mg/kg, ♀, 90 h after withdrawal) was 1.02 ± 0.06, the “Weight after withdrawal compared with weight one day before withdrawal” value ([3]; IV-12-2 100 mg/kg, ♀, 114 h after withdrawal) was 1.02 ± 0.07 and the “Weight after withdrawal compared with weight one day before withdrawal” value ([3]; IV-12-2 100 mg/kg, ♀, 138 h after withdrawal) was 1.04 ± 0.07. For the same compound, the “Weight after withdrawal compared with weight one day before withdrawal” value ([3]; IV-12-2 100 mg/kg, ♀, 162 h after withdrawal) was 1.04 ± 0.07.
